How the values were obtained:
thrombin = thrombin (Homo sapiens, UniProt P00734); conditions: previous analyses, Dickneite G. et al.; cited from earlier work
[1] = Immobilization of PEG urease on miniaturized experimental PMMA capillary dialyzer; conditions: 2 mg on 50 cm^2 dialyzer, after the first circulation
Method: (§1) As model enzyme, urease (EC 3.5.1.5., available from Sigma, order no. U 1500) is used. The preparation of a PEG-coupled urease preparation: 100 mg urease (type III, specific activity 20,000 to 30,000 U/g) are dissolved in 80 ml 0.1-mol borate buffer (pH 8) and added to 250 mg methoxy polyethylene glycol (25,000)-4-nitrophenyl carbonate and incubated for 24 h at 5° C. The reaction is stopped by a several times higher molar excess of TRIS, dialyzed against TRIS-HCl (pH 8) and developed in a HP-Q-sepharose column having a linear NaCl gradient (pH 8). The PEG urease conjugate elutes-at 180 to 200 mmol NaCl. The yield of PEG urease conjugate is 30-40%. The enzyme activity is measured by means of a urea assay. The cleaving activity is monitored by way of pH titration measuring and compared with non-conjugated urease. […] The urease coupled with 25 kD-polyethylene glycol is applied in a concentration of 2 mg (based on the protein content of the conjugate) to a miniaturized experimental capillary dialyzer having a surface of 50 cm^2. Already after the first circulation, more than 90% of the urease are immobilized on the surface. By the fifth recirculation cycle, the PEG urease is firmly installed on the surface of the membrane. […] A blood plasma solution (50 ml containing 30 mg urea) is applied to the urease-doped PMMA capillary dialyzer system. […]

[2] = Urea breakdown in blood plasma solution on urease-doped PMMA capillary dialyzer system; assay type: biochemical
Method: As model enzyme, urease (EC 3.5.1.5., available from Sigma, order no. U 1500) is used. The preparation of a PEG-coupled urease preparation: 100 mg urease (type III, specific activity 20,000 to 30,000 U/g) are dissolved in 80 ml 0.1-mol borate buffer (pH 8) and added to 250 mg methoxy polyethylene glycol (25,000)-4-nitrophenyl carbonate and incubated for 24 h at 5° C. The reaction is stopped by a several times higher molar excess of TRIS, dialyzed against TRIS-HCl (pH 8) and developed in a HP-Q-sepharose column having a linear NaCl gradient (pH 8). The PEG urease conjugate elutes-at 180 to 200 mmol NaCl. The yield of PEG urease conjugate is 30-40%. The enzyme activity is measured by means of a urea assay. The cleaving activity is monitored by way of pH titration measuring and compared with non-conjugated urease. […] The urease coupled with 25 kD-polyethylene glycol is applied in a concentration of 2 mg (based on the protein content of the conjugate) to a miniaturized experimental capillary dialyzer having a surface of 50 cm^2. Already after the first circulation, more than 90% of the urease are immobilized on the surface. By the fifth recirculation cycle, the PEG urease is firmly installed on the surface of the membrane. […] A blood plasma solution (50 ml containing 30 mg urea) is applied to the urease-doped PMMA capillary dialyzer system. In the eluate of the experimental PEG-urease-PMMA membrane, the remaining amounts of urea are identified after 5, 10, 20, and 30 minutes by way of an enzyme assay. […] The ammonia test in the blood is positive during the last 25 minutes of the experiment. From the analysis, it can be doubtlessly concluded that a pegylated enzyme, bonded to the PMMA membrane, develops a local enzyme activity and is able to generate corresponding specific interactions with its substrate in the circulating blood.

[3] = Urea assay of enzyme activity, pH titration, compared with non-conjugated urease; assay type: biochemical
Method: as §1

Substance | thrombin inhibiting agent quality (thrombin) | urease immobilized on the surface [1] | remaining urea in the eluate ([2]; 50 ml plasma containing 30 mg urea, after 30 min) | urea concentration in the blood plasma ([2]; 50 ml plasma containing 30 mg urea, within the first 10 min) | ammonia test in the blood ([2]; during the last 25 minutes of the experiment) | influence of pegylation on the ureolytic activity of the enzyme [3]
Mtr-Asn-D-Adf-Pip | highly specific and effective |  |  |  |  | 
PEG urease: urease (EC 3.5.1.5., Sigma) coupled with 25 kD-polyethylene glycol |  | more than 90% | unbound urea cannot be identified anymore | decreases rapidly | positive | slightly activity-increasing

— patent US7494824B2, “Interactive system for presenting and eliminating substances” (Max-Planck-Gesellschaft zur Förderung der Wissenschaften e. …, priority 1997, dated 2009)
